These results are taken from ChEMBL document CHEMBL5390302, “Novel PARP7 Inhibitors for Treating Cancer” (ACS Med Chem Lett, 2023).

Usually IC50 stands for the concentration at which inhibition is half-maximal. Lower therefore signals higher potency.

The structures appear in SMILES notation.

For the test, the target named is T1, Protein mono-ADP-ribosyltransferase TIPARP (Homo sapiens, UniProt Q7Z3E1).
T1 sequence (Q7Z3E1 whole entry): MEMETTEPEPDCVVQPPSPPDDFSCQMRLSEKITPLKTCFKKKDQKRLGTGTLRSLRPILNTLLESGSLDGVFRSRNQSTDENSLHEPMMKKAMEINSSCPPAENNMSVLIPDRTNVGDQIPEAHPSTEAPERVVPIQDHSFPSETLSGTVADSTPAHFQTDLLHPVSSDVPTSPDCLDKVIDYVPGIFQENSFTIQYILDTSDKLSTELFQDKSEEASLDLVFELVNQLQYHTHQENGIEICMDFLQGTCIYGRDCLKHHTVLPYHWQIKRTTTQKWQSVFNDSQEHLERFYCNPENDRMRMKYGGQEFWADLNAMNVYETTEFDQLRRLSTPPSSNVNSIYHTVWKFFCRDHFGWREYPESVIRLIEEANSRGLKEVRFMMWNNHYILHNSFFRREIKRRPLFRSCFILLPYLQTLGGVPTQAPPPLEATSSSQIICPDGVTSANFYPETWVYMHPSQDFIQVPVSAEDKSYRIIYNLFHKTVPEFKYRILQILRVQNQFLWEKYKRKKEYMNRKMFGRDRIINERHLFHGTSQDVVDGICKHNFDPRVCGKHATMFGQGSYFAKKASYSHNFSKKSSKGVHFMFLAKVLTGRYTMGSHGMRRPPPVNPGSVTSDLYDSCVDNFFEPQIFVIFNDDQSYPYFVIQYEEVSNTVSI
Briefly: Displacement of biotinylated RBN011147 probe from PARP7 (unknown origin) preincubated for 1 hr followed by incubation with probe for 1.5 hrs by MSD electrochemiluminescent assay.
Compound `C[C@@H](CCCn1ccc2cc(-c3ncc(Cl)c(N)n3)c(F)cc2c1=O)Nc1cn[nH]c(=O)c1C(F)(F)F` had an IC50 of 0.188 nM.

In turn, `C[C@@H](CCCn1ccc2cc(-c3ncc(C(F)(F)F)c(N4C[C@@H](O)[C@@H]4C)n3)c(F)cc2c1=O)Nc1cn[nH]c(=O)c1C(F)(F)F` came in with an IC50 of 0.185 nM.

`C[C@@H](CCCn1ccc2cc(-c3ncc(C(F)(F)F)c(N4CC(C#N)C4)n3)c(F)cc2c1=O)Nc1cn[nH]c(=O)c1C(F)(F)F`: the IC50 stood at 0.188 nM.
